This assay concerns the target eel acetylcholinesterase (AChE) (Electrophorus electricus, UniProt O42275). Kind of assay: Eel AChE fluorescence assay (AMPLEX Red kit). It counts as biochemical. The note with it: for assay interference test versus enzyme-free H2O2 reaction: parallel dose-response with 5 μM H2O2; for Hill slope, eel AChE dose-response: sixteen-point serial dilution, four-parameter fit; for inhibition of AChE activity (in words): eel AChE, 20 μM. As for the experimental part: Enzymatic reactions consisted of 50 μM acetylcholine, 200 μM AIVIPLEX™ Red reagent, 1 U/mL horseradish peroxidase, 0.1 U/mL choline oxidase and 0.096 U/mL acetylcholinesterase, with 30 1% DMSO. […] Control reactions lacking acetylcholinesterase but containing 5 μM H2O2 in presence of compounds were analyzed at the same wavelength to exclude compounds that display assay interference. Dose-response curves were performed in duplicate.

The mark [1] stands for this setting: read-out: inhibition of enzyme activity compared to DMSO control (screen).
[2] abbreviates: eel AChE activity, at 20 μM, read-out: Percentage inhibition.

Where a name gives a salt, the structure may show the parent alone. Read-outs that look alike come from different tables or passages of the source.

Sequence of eel acetylcholinesterase (AChE) (O42275 24-633): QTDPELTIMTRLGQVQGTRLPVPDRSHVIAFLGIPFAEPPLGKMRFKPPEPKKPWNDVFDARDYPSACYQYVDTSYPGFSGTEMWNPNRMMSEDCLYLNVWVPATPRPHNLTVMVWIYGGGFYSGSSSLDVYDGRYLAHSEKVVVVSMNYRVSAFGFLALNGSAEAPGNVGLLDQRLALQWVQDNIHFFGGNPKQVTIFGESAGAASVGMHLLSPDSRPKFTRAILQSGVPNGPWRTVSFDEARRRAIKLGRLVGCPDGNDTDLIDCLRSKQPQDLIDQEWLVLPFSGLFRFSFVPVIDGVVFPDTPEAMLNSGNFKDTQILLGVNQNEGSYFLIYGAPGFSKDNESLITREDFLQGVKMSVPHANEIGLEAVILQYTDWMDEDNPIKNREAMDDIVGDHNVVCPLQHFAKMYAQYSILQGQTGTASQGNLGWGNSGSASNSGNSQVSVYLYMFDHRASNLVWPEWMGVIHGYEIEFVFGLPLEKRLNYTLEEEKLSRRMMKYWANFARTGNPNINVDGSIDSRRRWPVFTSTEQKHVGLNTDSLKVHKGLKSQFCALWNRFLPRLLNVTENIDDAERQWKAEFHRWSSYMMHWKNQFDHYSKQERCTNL

`CO[C@H]1/C=C/O[C@@]2(C)Oc3c(C)c(O)c4c(O)c(c5c(nc6cc(C)ccn65)c4c3C2=O)NC(=O)/C(C)=C\C=C\[C@H](C)[C@H](O)[C@@H](C)[C@@H](O)[C@@H](C)[C@H](OC(C)=O)[C@@H]1C` [rifaximin]: the inhibition at 20 µM under setting [1] is no less than 50%.

For the molecule `O=C1c2ccccc2-c2ccccc21` [fluorenone], under setting [2], the inhibition at 20 µM turned out to be 3%.

For `CCN(CC)CCC[C@H](C)Nc1c2ccc(Cl)cc2nc2ccc(OC)cc12` [quinacrine hydrochloride], the inhibition at 20 µM was 61.8% under setting [2] and greater than 50% under setting [1].

As for `Cc1cc(N)c2ccccc2[n+]1CCCCCCCCCC[n+]1c(C)cc(N)c2ccccc21` [dequalinium chloride], the “assay interference test versus enzyme-free H2O2 reaction” value is on record as “likely represent true inhibition of the enzyme” and the “Hill slope, eel AChE dose-response” value amounted to 0.87. The inhibition at 20 µM under setting [1] is no less than 50%.

On to `COc1ccc2nc3cc(Cl)ccc3c(Nc3cc(CN4CCCC4)c(O)c(CN4CCCC4)c3)c2n1` [pyronaridine], for which the inhibition at 20 µM was 53.6% under setting [2] and greater than 50% under setting [1].

Turning to `CCN(CC)CCNc1ccc(C)c2sc3ccccc3c(=O)c12` [lucanthone], the “inhibition of AChE activity (in words)” value is given as “did not show appreciable activity”. Further, the inhibition at 20 µM under setting [2] was found to be 11%.

As to agelasine, the “assay interference test versus enzyme-free H2O2 reaction” value is recorded as “likely represent true inhibition of the enzyme” and the “Hill slope, eel AChE dose-response” value is 0.79.

In the case of `Nc1c2ccccc2nc2ccccc12` [aminacrine], the inhibition at 20 µM under setting [2] was found to be 99.2%.

With `O=C1c2cc(O)ccc2-c2ccc(O)cc21` [2,7-dihydroxy-9H-fluoren-9-one], the “inhibition of AChE activity (in words)” value is recorded as “neither fluorenone, nor the close derivative 2,7-dihydroxy-9H-fluoren-9-one inhibit AChE activity”. Under setting [2], the inhibition at 20 µM was found to be 30%.

In general, inhibition refers to the change of the read-out against control, counted positive when it falls.

(Values after patent US20230330045A1 (priority 2020, published 2023).)
